Data from patent US4105798A, “Perfluoro polycyclic compounds for use as synthetic blood and perfusion media” (Sun Ventures, Inc., priority 1977, dated 1978).

Tests used:
[1] = percentage of injected PF material still in the liver of mice after stated weeks; type: in vivo
Description: As indicated above, retention of the material in the body is important. The data below compare perfluorinated tributylamine (PFTBA), decalin (PFD), and methyldecalin (PFMD), with certain of the perfluorinated polycyclic hydrocarbons of this invention which have been obtained by perfluorinating the said polycyclic materials with just CoF3. Thus, in the table below "PFDMA" is the perfluorinated product derived from dimethyladamantane, i.e. a mixture of perfluorotrimethylbicyclo [3.3.1]nonane containing about 25 percent of other materials, principally perfluorinated dimethyladamantane. "PFMA" is the perfluorinated product of methyladamantane i.e., a mixture of perfluorodimethylbicyclo [3.3.1]nonanecontaining an unidentified amount of other compounds including perfluoromethyladamantane. Finally, "PFTHDCP" is the product of tetrahydrodicyclopentadiene, i.e. perfluorobicyclo [5.3.0] decane containing about 50 percent of other materials, principally perfluorotetrahydrodicyclopentadiene.
Emulsions containing 10% of the material to be tested, surfactant and water are made up and tested in the manner specified in Science, Vol. 181, August 1973, page 681. Mice were injected with the various emulsions. The mice were killed at intervals thereafter, the liver analyzed, and the percentage of original amount of PF material injected and still in the liver was determined.

[2] = relative emulsion stability; type: physicochemical
Experimental: (§1) The relative stability of a PFDMA emulsion and PFMA is excellent in that it is stable indefinitely, (e.g., over 6 months) at 4°-7° C whereas the PFD emulsion breaks down in several days at room temperature and in several weeks at 4°-7° C. PFTBA is also excellent. See for example the Journal of Microvascular Research, August 1974.

[3] = optical density / appearance of emulsion; type: physicochemical; details: for optical density of emulsion: emulsions prepared in the same manner
Experimental: as §1

[4] = LD50 after infusion of emulsion; type: in vivo; details: emulsions: 10.9% PFD, 10% PFDMA, 5% PFMA, 10% PFTBA
Description: The LD50 after infusion (ml/kg) of our materials compared with others are follows: […]

Percent of Dose in Liver After Stated Weeks ([1]; mouse, in vivo, 201600 min)	Molecule	Percent of Dose in Liver After Stated Weeks ([1]; mouse, in vivo, 20160 min)	Percent of Dose in Liver After Stated Weeks ([1]; mouse, in vivo, 60480 min)	Percent of Dose in Liver After Stated Weeks ([1]; mouse, in vivo, 120960 min)	time to emulsion break down ([2]; 4°-7° C)	time to emulsion break down ([2]; room temperature)	optical density of emulsion [3]	LD50 after infusion, 1 Hr. [4]	LD50 after infusion, 3 Days [4]	LD50 after infusion, 7 Days [4]	Percent of Dose in Liver After Stated Weeks ([1]; mice, injected emulsion containing 10% of material, 2 weeks)	Percent of Dose in Liver After Stated Weeks ([1]; mice, injected emulsion containing 10% of material, 6 weeks)	Percent of Dose in Liver After Stated Weeks ([1]; mice, injected emulsion containing 10% of material, 12 weeks)	Percent of Dose in Liver After Stated Weeks ([1]; mice, injected emulsion containing 10% of material, 20 weeks)	relative stability of emulsion (in words) ([2]; emulsion)	appearance of emulsion ([3]; in words)
	FC1(F)C(F)(F)C(F)(F)C2(F)C(F)(F)C(F)(F)C(F)(F)C(F)(F)C2(F)C1(F)F (centres unmarked) [PFD, perfluorodecalin]	4%	2%	2%	several weeks	several days	0.4	190 mL/kg	160 mL/kg	159 mL/kg						
	FC(F)(F)C(F)(F)C(F)(F)C(F)(F)N(C(F)(F)C(F)(F)C(F)(F)C(F)(F)F)C(F)(F)C(F)(F)C(F)(F)C(F)(F)F [PFTBA, perfluorinated tributylamine]						2.2	200 mL/kg	120 mL/kg	120 mL/kg	38%	30%	30%	30%	excellent	very milky in appearance
2%	methyldecalin [PFMD]	30%	19%	2%												
